Values joined by “and” are separate entries in the source; they are usually repeats but may differ in a detail not shown here. Equal values may be shown once. Toxic doses and inconclusive results are not listed. No stated cut-off is given here; in the data, active means T/C of 150% or more; inactive means T/C below 125%.
Test system: L1210 leukemia ip in BDF1 mice, survival T/C
Assay: NCI In Vivo Anticancer Drug Screen. Data for tumor model L1210 Leukemia (intraperitoneal) in B6D2F1 (BDF1) mice
Conditions: endpoint: mean survival time, higher = longer survival
Outline: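 Each compound was tested against a transplantable tumor grown in mice. The endpoint was survival, with treated animals benchmarked against vehicle controls as a simple ratio.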

[1] = dose: 100.0 mg/kg/injection, schedule: Q01DX001 (ip), vehicle: carboxymethylcellulose (CMC)
[2] = dose: 200.0 mg/kg/injection, schedule: Q01DX001 (ip), vehicle: carboxymethylcellulose (CMC)
[3] = dose: 400.0 mg/kg/injection, schedule: Q01DX001 (ip), vehicle: carboxymethylcellulose (CMC)
[4] = dose: 100.0 mg/kg/injection, schedule: Q01DX001 (ip), vehicle: other
[5] = dose: 200.0 mg/kg/injection, schedule: Q01DX001 (ip), vehicle: other
[6] = dose: 400.0 mg/kg/injection, schedule: Q01DX001 (ip), vehicle: other
[7] = dose: 100.0 mg/kg/injection, schedule: Q01DX009 (ip), vehicle: Klucel (hydroxypropylcellulose) (HPC)
[8] = dose: 100.0 mg/kg/injection, schedule: Q04DX003 (ip), vehicle: Klucel (hydroxypropylcellulose) (HPC)
[9] = dose: 200.0 mg/kg/injection, schedule: Q01DX009 (ip), vehicle: Klucel (hydroxypropylcellulose) (HPC)
[10] = dose: 200.0 mg/kg/injection, schedule: Q04DX003 (ip), vehicle: Klucel (hydroxypropylcellulose) (HPC)
[11] = dose: 400.0 mg/kg/injection, schedule: Q04DX003 (ip), vehicle: Klucel (hydroxypropylcellulose) (HPC)
[12] = dose: 100.0 mg/kg/injection, schedule: Q01DX009 (ip), vehicle: saline with Tween-80
[13] = dose: 100.0 mg/kg/injection, schedule: Q04DX003 (ip), vehicle: saline with Tween-80
[14] = dose: 200.0 mg/kg/injection, schedule: Q01DX009 (ip), vehicle: saline with Tween-80
[15] = dose: 200.0 mg/kg/injection, schedule: Q04DX003 (ip), vehicle: saline with Tween-80
[16] = dose: 400.0 mg/kg/injection, schedule: Q01DX009 (ip), vehicle: saline with Tween-80
[17] = dose: 400.0 mg/kg/injection, schedule: Q04DX003 (ip), vehicle: saline with Tween-80
[18] = dose: 100.0 mg/kg/injection, schedule: Q01DX001 (ip), vehicle: saline
[19] = dose: 100.0 mg/kg/injection, schedule: Q01DX009 (ip), vehicle: saline
[20] = dose: 200.0 mg/kg/injection, schedule: Q01DX009 (ip), vehicle: saline

Measured: T/C

CCOC(=O)c1ccc(NS(=O)(=O)c2ccc(Cl)cc2[N+](=O)[O-])cc1
inactive: [1] 99 % of control | dose: 100.0 mg/kg/injection, schedule: Q01DX009 (ip), vehicle: carboxymethylcellulose (CMC) 112 % of control and 88 % of control | dose: 100.0 mg/kg/injection, schedule: Q04DX002 (ip), vehicle: carboxymethylcellulose (CMC) 96 % of control and 90 % of control | dose: 100.0 mg/kg/injection, schedule: Q04DX003 (ip), vehicle: carboxymethylcellulose (CMC) 105 % of control | [2] 101 % of control | dose: 200.0 mg/kg/injection, schedule: Q01DX009 (ip), vehicle: carboxymethylcellulose (CMC) 88 % of control and 89 % of control | dose: 200.0 mg/kg/injection, schedule: Q04DX002 (ip), vehicle: carboxymethylcellulose (CMC) 93 % of control and 91 % of control | dose: 200.0 mg/kg/injection, schedule: Q04DX003 (ip), vehicle: carboxymethylcellulose (CMC) 102 % of control | [3] 103 % of control | dose: 400.0 mg/kg/injection, schedule: Q01DX009 (ip), vehicle: carboxymethylcellulose (CMC) 88 % of control and 91 % of control | dose: 400.0 mg/kg/injection, schedule: Q04DX002 (ip), vehicle: carboxymethylcellulose (CMC) 93 % of control | dose: 400.0 mg/kg/injection, schedule: Q04DX003 (ip), vehicle: carboxymethylcellulose (CMC) 93 % of control

Nc1ccc(-c2ccc(N)c(Oc3ccccc3)c2)cc1Oc1ccccc1
inactive: [4] 92 % of control | [5] 97 % of control | [6] 94 % of control

OCC1OCOC(CI)C(O)C1O (stereo not drawn)
inactive: [1] 97 % of control | [2] 101 % of control | [3] 97 % of control

CSc1ccc(/C=N/NC(N)=S)cc1
inactive: [7] 103 % of control | [8] 106 % of control | [9] 92 % of control | [10] 106 % of control | [11] 108 % of control

COc1ccccc1C(=O)NS(=O)(=O)c1ccc(Cl)cc1
inactive: dose: 100.0 mg/kg/injection, schedule: Q04DX003 (ip), vehicle: acetone 113 % of control | dose: 200.0 mg/kg/injection, schedule: Q04DX003 (ip), vehicle: acetone 101 % of control | dose: 400.0 mg/kg/injection, schedule: Q04DX003 (ip), vehicle: acetone 96 % of control

Cc1cccc(OC(=O)NC2CCCCC2)c1
inactive: [7] 118 % of control | [8] 102 % of control | [9] 114 % of control | [10] 95 % of control | dose: 400.0 mg/kg/injection, schedule: Q01DX009 (ip), vehicle: Klucel (hydroxypropylcellulose) (HPC) 106 % of control | [11] 96 % of control

C=CCCC(=O)OC(C)(C)C
inactive: dose: 25.0 mg/kg/injection, schedule: Q01DX009 (ip), vehicle: water 96 % of control | dose: 50.0 mg/kg/injection, schedule: Q01DX009 (ip), vehicle: water 96 % of control | dose: 100.0 mg/kg/injection, schedule: Q01DX009 (ip), vehicle: water 98 % of control | dose: 200.0 mg/kg/injection, schedule: Q01DX009 (ip), vehicle: water 97 % of control

NS(=O)Oc1ccc(Nc2ncnc3nc[nH]c23)cc1 (stereo not drawn)
inactive: [12] 97 % of control | [13] 98 % of control | [14] 95 % of control | [15] 102 % of control | [16] 104 % of control | [17] 98 % of control

Cc1cccc(C)c1NC(N)=S
inactive: [8] 98 % of control | [10] 90 % of control

CC1(C)CCC(C)(C)c2c1ccc(O)c2Sc1c(O)ccc2c1C(C)(C)CCC2(C)C
inactive: [18] 87 % of control

NNC(=O)CNc1ccccc1
inactive: dose: 50.0 mg/kg/injection, schedule: Q01DX001 (ip), vehicle: Klucel (hydroxypropylcellulose) (HPC) 100 % of control | dose: 100.0 mg/kg/injection, schedule: Q01DX001 (ip), vehicle: Klucel (hydroxypropylcellulose) (HPC) 110 % of control | dose: 200.0 mg/kg/injection, schedule: Q01DX001 (ip), vehicle: Klucel (hydroxypropylcellulose) (HPC) 117 % of control

COc1ccc(NC(=O)Nc2ccc(C)cc2C)cc1
inactive: [13] 93 % of control | [15] 90 % of control | [17] 95 % of control

CC1(C)C2CCC1(C)C(C(=O)C(F)(F)F)C2=O.CC1(C)C2CCC1(C)C(C(=O)C(F)(F)F)C2=O.CC1(C)C2CCC1(C)C(C(=O)C(F)(F)F)C2=O.[Eu] (stereo not drawn)
inactive: dose: 50.0 mg/kg/injection, schedule: Q04DX002 (ip), vehicle: saline with Tween-80 105 % of control | dose: 100.0 mg/kg/injection, schedule: Q04DX002 (ip), vehicle: saline with Tween-80 94 % of control | dose: 200.0 mg/kg/injection, schedule: Q04DX002 (ip), vehicle: saline with Tween-80 102 % of control

COC(=O)/C=C(/CC(=O)OC)Nc1ccc(OC)cc1
inactive: [4] 101 % of control | [5] 101 % of control | [6] 108 % of control

Cc1cc(CSC2=NCCCN2)c(C)cc1CSC1=NCCCN1
inactive: dose: 1.56 mg/kg/injection, schedule: Q01DX009 (ip), vehicle: saline 88 % of control | dose: 3.13 mg/kg/injection, schedule: Q01DX009 (ip), vehicle: saline 103 % of control | dose: 6.25 mg/kg/injection, schedule: Q01DX009 (ip), vehicle: saline 92 % of control

CCCCCCCCCCCCC(=O)[O][Hg][c]1ccccc1
inactive: dose: 9.38 mg/kg/injection, schedule: Q01DX001 (ip), vehicle: steriod suspending solution 96 % of control | dose: 18.75 mg/kg/injection, schedule: Q01DX001 (ip), vehicle: steriod suspending solution 98 % of control

CSc1ccc(Sc2cccc3c2C(=O)c2c(cccc2Sc2ccc(SC)cc2)C3)cc1
inactive: [12] 90 % of control | [14] 92 % of control | [16] 103 % of control

CCC(C)c1cc([N+](=O)[O-])cc([N+](=O)[O-])c1O (stereo not drawn)
inactive: dose: 12.5 mg/kg/injection, schedule: Q04DX003 (ip), vehicle: Klucel (hydroxypropylcellulose) (HPC) 95 % of control | dose: 25.0 mg/kg/injection, schedule: Q04DX003 (ip), vehicle: Klucel (hydroxypropylcellulose) (HPC) 98 % of control | dose: 50.0 mg/kg/injection, schedule: Q04DX003 (ip), vehicle: Klucel (hydroxypropylcellulose) (HPC) 96 % of control

CC(C)=C(Br)Br
inactive: dose: 75.0 mg/kg/injection, schedule: Q01DX001 (ip), vehicle: saline 94 % of control | dose: 150.0 mg/kg/injection, schedule: Q01DX001 (ip), vehicle: saline 94 % of control | dose: 300.0 mg/kg/injection, schedule: Q01DX001 (ip), vehicle: saline 96 % of control

N#CCCN1CCOCC1
inactive: [19] 93 % of control | dose: 100.0 mg/kg/injection, schedule: Q04DX003 (ip), vehicle: saline 97 % of control | [20] 97 % of control | dose: 200.0 mg/kg/injection, schedule: Q04DX003 (ip), vehicle: saline 95 % of control | dose: 400.0 mg/kg/injection, schedule: Q01DX009 (ip), vehicle: saline 95 % of control | dose: 400.0 mg/kg/injection, schedule: Q04DX003 (ip), vehicle: saline 105 % of control

O=C(O)Cc1ccc(Cl)c(Cl)c1
inactive: dose: 50.0 mg/kg/injection, schedule: Q01DX009 (ip), vehicle: saline 94 % of control | [19] 105 % of control | [20] 108 % of control

Cc1nnc2sc(C(=O)O)nn12
inactive: [18] 90 % of control | dose: 200.0 mg/kg/injection, schedule: Q01DX001 (ip), vehicle: saline 93 % of control | dose: 400.0 mg/kg/injection, schedule: Q01DX001 (ip), vehicle: saline 96 % of control
